According to US11584726B2 (Beijing Foreland Pharma Co., Ltd., priority 2017, dated 2023):

Legend:
[1] = system: CD4 on peripheral blood cell; assay: Effects on the expression of CD4 on peripheral blood cell in mice (flow cytometry); assay type: in vivo, mice (C57 BL/6); settings: intragastric, once a day for four days, mouse peripheral blood
Experimental: (§1) FITC Rat Anti-Mouse CD8a: BD, Cat. #553030.
(§2) PE Rat Anti-Mouse CD4: BD, Cat. #557308.
(§3) APC Rat Anti-Mouse CD19: BD, Cat. #561738.
(§4) The compounds used in the test were prepared by the chemical department of Beijing Forelandpharma Co. Ltd.
(§5) Routs of administration: intragastric administration, once a day, and continuous administration for four days.
(§6) After the administration, supraorbital venous blood was collected from the mouse, added to an EP tube (1.5 ml) containing an anticoagulant, and kept on the ice. The resulting mixture was transferred to a test tube, centrifuged at 4° C. and 1200 rpm/min for 5 min, removed with the supernatant liquid, added with a lysate, processed with cell lysis on the ice for 5 min, then pre-dyed, added with diluted antibody, and incubated away from light for 30 min. After the incubation, the resulting mixture was washed, removed with the supernatant liquid, added with stationary liquid, and kept in a refrigerator at 4° C. away from light for the test of flow cytometry.

[2] = system: CD19 on peripheral blood cell; assay: Effects on the expression of CD19 on peripheral blood cell in mice (flow cytometry); assay type: in vivo, mice (C57 BL/6); settings: intragastric, once a day for four days, mouse peripheral blood
Experimental: as §1, §2, §3, §4, §5, §6

[3] = system: CD8 on peripheral blood cell; assay: Effects on the expression of CD8 on peripheral blood cell in mice (flow cytometry); assay type: in vivo, mice (C57 BL/6); settings: intragastric, once a day for four days, mouse peripheral blood
Experimental: as §1, §2, §3, §4, §5, §6

S1P1 = S1P1 (Homo sapiens (Human), UniProt P21453); assay: PathHunter β-arrestin test S1P1; assay type: cell-based; settings: PathHunter β-arrestin engineering cells
Chain of S1P1 (P21453 whole entry, species assumed): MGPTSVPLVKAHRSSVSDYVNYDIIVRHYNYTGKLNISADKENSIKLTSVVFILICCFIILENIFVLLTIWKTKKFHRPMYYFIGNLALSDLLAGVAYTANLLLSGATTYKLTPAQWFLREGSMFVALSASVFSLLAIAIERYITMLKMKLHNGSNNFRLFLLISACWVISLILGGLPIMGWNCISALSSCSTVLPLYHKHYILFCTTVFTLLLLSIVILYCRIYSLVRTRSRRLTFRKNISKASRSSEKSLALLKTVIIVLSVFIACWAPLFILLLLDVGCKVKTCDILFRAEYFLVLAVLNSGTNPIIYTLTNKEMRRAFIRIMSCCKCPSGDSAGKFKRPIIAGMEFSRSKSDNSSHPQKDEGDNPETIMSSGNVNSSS
Experimental: (§7) 1. PathHunter β-arrestin testing system was used to detect the biological activity of the compounds.
(§8) 2. β-arrestin engineering cells were cultured on […] culture plates and placed in an incubator at 37° C.
(§9) 3. The sample to be tested was diluted with reaction solution in 5-fold dilution.
(§10) 4. The diluted sample to be tested was added to the engineering cells and the reaction was induced and observed.
(§11) 5. The chemiluminescence signal produced in the test may be detected by multifunctional enzyme marker (PerkinElmer Envision™).
(§12) Test Analysis and Results
(§13) 6. The data obtained was analyzed using the data analysis software of CBIS (ChemInnovation, CA) to achieve EC50, and the test results are shown in Table 2.

S1P2 = S1P2 (Homo sapiens (Human), UniProt O95136); assay: PathHunter β-arrestin test S1P2; assay type: cell-based; settings: PathHunter β-arrestin engineering cells
Chain of S1P2 (O95136 whole entry, species assumed): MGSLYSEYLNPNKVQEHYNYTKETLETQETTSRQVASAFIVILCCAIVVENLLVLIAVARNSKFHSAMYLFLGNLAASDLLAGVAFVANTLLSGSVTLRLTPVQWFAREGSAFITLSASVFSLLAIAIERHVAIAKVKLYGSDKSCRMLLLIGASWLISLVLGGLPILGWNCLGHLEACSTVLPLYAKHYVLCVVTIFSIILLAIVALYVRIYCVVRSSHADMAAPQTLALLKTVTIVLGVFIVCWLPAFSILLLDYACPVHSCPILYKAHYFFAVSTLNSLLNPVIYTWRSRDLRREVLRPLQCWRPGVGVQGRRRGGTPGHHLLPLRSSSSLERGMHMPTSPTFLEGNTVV
Experimental: as §7, §8, §9, §10, §11, §12, §13

S1P5 = S1P5 (Homo sapiens (Human), UniProt Q9H228); assay: Fluorescence detection FLIPR assay, activation of GPCR (S1P5); assay type: cell-based; settings: total detection time 180 s, read-out: FLIPR Test EC50 S1P5
Chain of S1P5 (Q9H228 whole entry, species assumed): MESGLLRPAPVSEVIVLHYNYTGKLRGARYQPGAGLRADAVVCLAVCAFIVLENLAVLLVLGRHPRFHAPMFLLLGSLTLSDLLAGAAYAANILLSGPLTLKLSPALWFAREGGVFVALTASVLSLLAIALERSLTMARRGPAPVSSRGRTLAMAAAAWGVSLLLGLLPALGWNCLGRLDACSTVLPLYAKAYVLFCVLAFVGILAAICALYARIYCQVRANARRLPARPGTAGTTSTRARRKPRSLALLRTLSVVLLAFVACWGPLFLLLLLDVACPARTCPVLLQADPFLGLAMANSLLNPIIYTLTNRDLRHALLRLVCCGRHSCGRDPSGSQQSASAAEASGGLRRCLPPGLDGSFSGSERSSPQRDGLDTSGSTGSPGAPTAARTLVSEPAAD
Experimental: The sample to be tested was dissolved in DMSO and diluted with detection buffer solution in 3-fold dilution. A reagent and a positive control were diluted in the same way.
The reactions of the agonist, the reagent and the positive control were detected by a device of […] with a total detection time of 180 s to estimate the ability to activate GPCR (S1P5) of each compound.

S1P3 = S1P3 (Homo sapiens (Human), UniProt Q99500); assay: PathHunter β-arrestin test S1P3; assay type: cell-based; settings: PathHunter β-arrestin engineering cells
Chain of S1P3 (Q99500 whole entry, species assumed): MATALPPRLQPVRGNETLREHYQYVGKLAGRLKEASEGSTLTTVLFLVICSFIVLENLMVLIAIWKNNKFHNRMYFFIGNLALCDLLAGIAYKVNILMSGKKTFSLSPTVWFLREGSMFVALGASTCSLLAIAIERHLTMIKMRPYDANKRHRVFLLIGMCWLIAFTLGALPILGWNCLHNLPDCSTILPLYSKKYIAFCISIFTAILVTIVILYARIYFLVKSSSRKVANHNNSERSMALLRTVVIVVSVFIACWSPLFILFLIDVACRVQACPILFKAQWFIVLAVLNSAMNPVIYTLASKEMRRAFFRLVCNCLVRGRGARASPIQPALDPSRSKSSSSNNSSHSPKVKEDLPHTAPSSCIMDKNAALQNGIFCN
Experimental: as §7, §8, §9, §10, §11, §12, §13

S1P4 = S1P4 (Homo sapiens (Human), UniProt O95977); assay: PathHunter β-arrestin test S1P4; assay type: cell-based; settings: PathHunter β-arrestin engineering cells
Chain of S1P4 (O95977 whole entry, species assumed): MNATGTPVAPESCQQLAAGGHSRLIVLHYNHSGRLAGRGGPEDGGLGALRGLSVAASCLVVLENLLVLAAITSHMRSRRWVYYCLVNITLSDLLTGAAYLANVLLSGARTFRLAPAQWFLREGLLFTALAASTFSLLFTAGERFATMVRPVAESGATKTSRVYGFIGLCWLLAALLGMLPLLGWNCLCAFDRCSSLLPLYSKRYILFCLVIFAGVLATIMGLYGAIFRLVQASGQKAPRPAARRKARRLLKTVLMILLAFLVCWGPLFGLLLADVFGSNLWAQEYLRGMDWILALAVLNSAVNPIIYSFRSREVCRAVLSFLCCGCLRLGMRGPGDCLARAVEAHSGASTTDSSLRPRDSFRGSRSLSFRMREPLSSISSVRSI
Experimental: as §7, §8, §9, §10, §11, §12, §13

hERG potassium channel = hERG potassium channel (Homo sapiens (Human), UniProt Q12809); assay: hERG patch clamp test in HEK293 engineering cells; assay type: cell-based; settings: HEK293 cells stably expressing hERG potassium channel
Chain of hERG potassium channel (Q12809 whole entry): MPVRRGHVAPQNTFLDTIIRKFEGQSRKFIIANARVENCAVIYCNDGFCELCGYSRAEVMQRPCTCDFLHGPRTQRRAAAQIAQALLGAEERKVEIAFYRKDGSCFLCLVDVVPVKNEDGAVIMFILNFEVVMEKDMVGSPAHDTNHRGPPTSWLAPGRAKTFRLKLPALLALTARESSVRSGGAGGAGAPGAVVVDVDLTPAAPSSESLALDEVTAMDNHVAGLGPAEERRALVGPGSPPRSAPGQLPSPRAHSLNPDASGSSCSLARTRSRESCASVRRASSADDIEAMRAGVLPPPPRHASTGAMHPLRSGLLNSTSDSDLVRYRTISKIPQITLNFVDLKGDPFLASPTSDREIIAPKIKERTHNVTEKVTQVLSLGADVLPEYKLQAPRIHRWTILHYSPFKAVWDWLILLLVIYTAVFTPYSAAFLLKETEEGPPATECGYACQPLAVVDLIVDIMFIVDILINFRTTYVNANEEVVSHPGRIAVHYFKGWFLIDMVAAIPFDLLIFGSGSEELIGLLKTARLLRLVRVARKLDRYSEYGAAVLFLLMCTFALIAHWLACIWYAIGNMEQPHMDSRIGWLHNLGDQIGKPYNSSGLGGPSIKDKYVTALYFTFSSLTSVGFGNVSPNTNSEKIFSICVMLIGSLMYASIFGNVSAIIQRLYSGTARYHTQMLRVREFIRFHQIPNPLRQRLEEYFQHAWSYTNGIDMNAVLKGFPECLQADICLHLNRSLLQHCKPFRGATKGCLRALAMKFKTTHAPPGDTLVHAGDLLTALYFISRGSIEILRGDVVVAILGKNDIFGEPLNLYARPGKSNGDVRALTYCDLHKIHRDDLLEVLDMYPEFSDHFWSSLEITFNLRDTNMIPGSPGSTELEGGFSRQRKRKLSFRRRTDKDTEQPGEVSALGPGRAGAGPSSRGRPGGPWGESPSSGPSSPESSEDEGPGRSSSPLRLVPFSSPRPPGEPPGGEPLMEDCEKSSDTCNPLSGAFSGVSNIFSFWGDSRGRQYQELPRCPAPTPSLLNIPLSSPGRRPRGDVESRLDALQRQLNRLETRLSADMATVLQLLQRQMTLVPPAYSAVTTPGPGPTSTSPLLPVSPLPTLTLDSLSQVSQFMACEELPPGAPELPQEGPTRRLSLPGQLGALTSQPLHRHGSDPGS
Experimental: 1. HEK293 engineering cells stably expressed with hERG potassium channel were used to test the compounds.
The cells were separated by TrypLE™ Express before the test. 3×10^3 of cells were spread on a cover plate, cultured in 24-well plate and tested 18 hours later. The signals produced by voltage stimulation of potassium currents in cells were recorded by electrophysiological techniques.
Data Analysis and Results
First of all, currents after the action of drug of each concentration and blank control were standardized separately
[formula] and then the corresponding inhibition ratio of each concentration was calculated
[formula] The average and the standard error were calculated for each concentration, and 50% inhibiting concentration of each compound was calculated according to the following equation: […]
The dose-dependent effect was obtained through nonlinear fitting with the equation above. C refers to drug concentration, IC50 refers to 50% inhibiting concentration and h refers to hill coefficient. The curve fitting and the calculation of IC50 were processed by IGOR software.

| Compound | CD4 (%) ([1]; 1 mg/kg) | CD4 (%) ([1]; 5 mg/kg) | CD19 (%) ([2]; 1 mg/kg) | CD19 (%) ([2]; 5 mg/kg) | CD8 (%) ([3]; 1 mg/kg) | CD8 (%) ([3]; 5 mg/kg) | EC50 (S1P1) | EC50 (S1P2) | EC50 (S1P5) | EC50 (S1P3) | EC50 (S1P4) | IC50 (hERG potassium channel) |
| --- | --- | --- | --- | --- | --- | --- | --- | --- | --- | --- | --- | --- |
| CC(C)Oc1ccc(-c2nnc(-c3ccc4c(c3)C[C@](N)(CO)CC4)o2)cc1F [Example 1, (S)-(2-amino-7-(5-(3-fluoro-4-isopropoxyphenyl)-1,3,4-oxadiazol-2-yl)-1,2,3,4-tetrahydronaphthalen-2-yl)methanol] | 10.9% | 1.2% | 39.0% | 17.5% | 10.0% | 1.8% |  |  |  |  |  |  |
| N[C@@]1(CO)CCc2ccc(-c3nnc(-c4ccc5c(c4)OCO5)o3)cc2C1 [Example 2] | 23.1% | 16.4% | 44.8% | 35.2% | 13.0% | 8.6% |  |  |  |  |  |  |
| CC(C)Oc1ccc(-c2nnc(-c3ccc4c(c3)C[C@](N)(CO)CC4)o2)cc1C#N [Example 3, (S)-5-(5-(7-amino-7-(hydroxymethyl)-5,6,7,8-tetrahydronaphthalen-2-yl)-1,3,4-oxadiazol-2-yl)-2-isopropoxybenzonitrile] | 22.1% | 7.2% | 39.3% | 24.7% | 11.9% | 6.1% | 4.56 nM | > 100000 nM | 250 nM | 2110 nM | > 100000 nM | 7800 nM |
| CC(C)Oc1ccc(-c2nnc(-c3ccc4c(c3)C[C@](N)(CO)CC4)o2)cc1C(N)=O [Example 4, (S)-5-(5-(7-amino-7-(hydroxymethyl)-5,6,7,8-tetrahydronaphthalen-2-yl)-1,3,4-oxadiazol-2-yl)-2-isopropoxybenzamide] | 27.1% | 27.0% | 47.1% | 43.6% | 14.5% | 12.3% |  |  |  |  |  |  |
| N#Cc1cc(-c2nnc(-c3ccc4c(c3)C[C@](N)(CO)CC4)o2)ccc1O [Example 5, (S)-5-(5-(7-amino-7-(hydroxymethyl)-5,6,7,8-tetrahydronaphthalen-2-yl)-1,3,4-oxadiazol-2-yl)-2-hydroxybenzonitrile] | 31.5% | 27.1% | 44.3% | 43.8% | 16.8% | 14.7% |  |  |  |  |  |  |
| COc1ccc(-c2nnc(-c3ccc4c(c3)C[C@](N)(CO)CC4)o2)cc1C(F)(F)F [Example 6, (S)-(2-amino-7-(5-(4-methoxy-3-(trifluoromethyl)phenyl)-1,3,4-oxadiazol-2-yl)-1,2,3,4-tetrahydronaphthalen-2-yl)methanol] | 17.8% | 8.7% | 34.0% | 29.1% | 17.0% | 5.7% |  |  |  |  |  |  |
| N[C@@]1(CO)CCc2ccc(-c3nnc(-c4ccc(F)c(F)c4)o3)cc2C1 [Example 7, (S)-(2-amino-7-(5-(3,4-difluorophenyl)-1,3,4-oxadiazol-2-yl)-1,2,3,4-tetrahydronaphthalen-2-yl)methanol] | 26.5% | 13.4% | 45.2% | 40.6% | 14.5% | 9.2% |  |  |  |  |  |  |
| COc1ccc(-c2nnc(-c3ccc4c(c3)C[C@](N)(CO)CC4)o2)cc1F [Example 8, (S)-(2-amino-7-(5-(3-fluoro-4-methoxyphenyl)-1,3,4-oxadiazol-2-yl)-1,2,3,4-tetrahydronaphthalen-2-yl)methanol] | 33.4% | 30.0% | 36.8% | 41.7% | 16.6% | 16.0% |  |  |  |  |  |  |
| CC(=O)Nc1ccc(-c2nnc(-c3ccc4c(c3)C[C@](N)(CO)CC4)o2)cc1 [Example 9, (S)—N-(4-(5-(7-amino-7-(hydroxymethyl)-5,6,7,8-tetrahydronaphthalen-2-yl)-1,3,4-oxadiazol-2-yl)phenyl)acetamide] | 33.1% | 31.9% | 42.5% | 44.3% | 17.3% | 17.0% |  |  |  |  |  |  |
| N[C@@]1(CO)CCc2ccc(-c3nnc(-c4ccc(C(F)(F)F)c(F)c4)o3)cc2C1 [Example 11, (S)-(2-amino-7-(5-(3-fluoro-4-(trifluoromethyl)phenyl)-1,3,4-oxadiazol-2-yl)-1,2,3,4-tetrahydronaphthalen-2-yl)methanol] | 23.5% | 20.5% | 52.1% | 54.0% | 14.9% | 13.8% |  |  |  |  |  |  |
| N[C@@]1(CO)CCc2ccc(-c3nnc(-c4cc(C(F)(F)F)cc(C(F)(F)F)c4)o3)cc2C1 [Example 12, (S)-(2-amino-7-(5-(3,5-bis(trifluoromethyl)phenyl)-1,3,4-oxadiazol-2-yl)-1,2,3,4-tetrahydronaphthalen-2-yl)methanol] | 15.2% | 2.8% | 53.2% | 38.1% | 9.6% | 3.4% |  |  |  |  |  |  |
| CCOc1ccc(-c2nnc(-c3ccc4c(c3)C[C@](N)(CO)CC4)o2)cc1OCC [Example 13, (S)-(2-amino-7-(5-(3,4-diethoxyphenyl)-1,3,4-oxadiazol-2-yl)-1,2,3,4-tetrahydronaphthalen-2-yl)methanol] | 23.4% | 11.6% | 56.8% | 53.8% | 12.7% | 9.4% | 21.6 nM | > 100000 nM | > 10000 nM | 613 nM | > 100000 nM |  |
| CC(C)Oc1ccc(-c2nnc(-c3ccc4c(c3)C[C@](N)(CO)CC4)o2)cc1C(F)(F)F [Example 14, (S)-(2-amino-7-(5-(4-isopropoxy-3-(trifluoromethyl)phenyl)-1,3,4-oxadiazol-2-yl)-1,2,3,4-tetrahydronaphthalen-2-yl)methanol] |  |  |  |  |  |  |  |  |  |  |  | 870 nM |
| CCCCCCCCCCCCC/C=C/[C@@H](O)[C@@H](N)COP(=O)(O)O [Example S1P, sphingosine-1-phosphate, reference compound] |  |  |  |  |  |  | 25.2 nM |  |  | 26.3 nM | 190 nM |  |
